Measured values from PMC10648852, “Molecular drivers of resistance to sulbactam-durlobactam in contemporary clinical isolates of Acinetobacter baumannii” (Antimicrobial Agents and Chemotherapy, 2023).

Experiments:
Assay in all cases: microbe, parasite or virus in culture
[1] = tested on: ABC clinical isolates with SUL-DUR MIC > 4 µg/mL; format: cell-based, Acinetobacter baumannii-calcoaceticus complex
Procedure: (§1) The following report describes the genomic analysis of these isolates for likely resistance mechanisms. Biochemical analysis of purified PBP3 and phenotypic analyses of both clinical and isogenic strains were also conducted to determine the relative impact of key resistance determinants to SUL-DUR antibacterial activity.
(§2) Antimicrobial susceptibility testing was performed using broth microdilution following standardized methods established by the Clinical Laboratory Standards Institute (CLSI) ([35], [36]). […] MIC values were interpreted using CLSI breakpoints for all antimicrobial agents except those for which CLSI breakpoints are not available ([35]). SUL-DUR was tested as twofold dilutions of sulbactam in combination with a fixed concentration of 4 µg/mL durlobactam ([35]).

[2] = tested on: A. pittii clinical isolates; format: cell-based
Procedure: as §1, §2

[3] = tested on: A. nosocomialis clinical isolate; format: cell-based; details: isolate ARC7023 (IHMA 2118812), France, BSI, 2019
Procedure: as §1, §2

[4] = tested on: A. baumannii clinical isolates; format: cell-based
Procedure: as §1, §2

CN(C)c1ccc(O)c2c1C[C@H]1C[C@H]3[C@H](N(C)C)C(O)=C(C(N)=O)C(=O)[C@@]3(O)C(O)=C1C2=O [MIN]
MIC50 [1]: 2 µg/mL | MIC90 [1]: 16 µg/mL | MIC Max [1]: >16 µg/mL | MIC Min [1]: ≤0.12 µg/mL | %NS (% non-susceptibility) ([1]; 64 non-clonal ABC isolates, 2023 CLSI breakpoints plus FDA breakpoint of 4 µg/mL for SUL-DUR): 27% | MIC ([2]; isolate ARC6949 (IHMA 1898982), Romania, RTI, 2018): 0.5 µg/mL | MIC ([2]; isolate ARC6951 (IHMA 1776233), Philippines, RTI, 2018): 0.25 µg/mL | MIC ([2]; isolate ARC6952 (IHMA 1899008), Romania, RTI, 2018): 1 µg/mL | MIC ([2]; isolate ARC7087 (IHMA 2212062), Colombia, BSI, 2020): ≤0.12 µg/mL | MIC [3]: 0.5 µg/mL | MIC ([4]; isolate ARC6644 (IHMA 1420327), Mexico, UTI, 2016): 8 µg/mL | MIC ([4]; isolate ARC6645 (IHMA 1435703), France, UTI, 2016): 0.5 µg/mL | MIC ([4]; isolate ARC6646 (IHMA 1484127), United States, RTI, 2016): 8 µg/mL | MIC ([4]; isolate ARC6647 (IHMA 1386786), Argentina, RTI, 2016): 1 µg/mL | MIC ([4]; isolate ARC6648 (IHMA 1407634), Spain, RTI, 2016): 1 µg/mL | MIC ([4]; isolate ARC6650 (IHMA 1457337), Argentina, RTI, 2016): 4 µg/mL | MIC ([4]; isolate ARC6652 (IHMA 1465642), Belgium, RTI, 2016): ≤0.12 µg/mL | MIC ([4]; isolate ARC6653 (IHMA 1308777), Vietnam, RTI, 2016): 16 µg/mL | MIC ([4]; isolate ARC6799 (IHMA 1562935), Spain, UTI, 2017): >16 µg/mL | MIC ([4]; isolate ARC6800 (IHMA 1557526), Turkey, RTI, 2017): 2 µg/mL | MIC ([4]; isolate ARC6801 (IHMA 1662094), Thailand, RTI, 2017): 0.5 µg/mL | MIC ([4]; isolate ARC6802 (IHMA 1557073), Spain, UTI, 2017): >16 µg/mL | MIC ([4]; isolate ARC6803 (IHMA 1589408), Belgium, UTI, 2017): ≤0.12 µg/mL | MIC ([4]; isolate ARC6805 (IHMA 1558650), United States, RTI, 2017): 8 µg/mL | MIC ([4]; isolate ARC6808 (IHMA 1557168), Spain, RTI, 2017): 16 µg/mL | MIC ([4]; isolate ARC6809 (IHMA 1699528), Guatemala, RTI, 2017): ≤0.12 µg/mL | MIC ([4]; isolate ARC6810 (IHMA 1699548), Guatemala, RTI, 2017): 1 µg/mL | MIC ([4]; isolate ARC6812 (IHMA 1699530), Guatemala, RTI, 2017): 0.25 µg/mL | MIC ([4]; isolate ARC6813 (IHMA 1699543), Guatemala, UTI, 2017): 0.25 µg/mL | MIC ([4]; isolate ARC6814 (IHMA 1699512), Guatemala, RTI, 2017): 4 µg/mL | MIC ([4]; isolate ARC6815 (IHMA 1699513), Guatemala, RTI, 2017): 0.25 µg/mL | MIC ([4]; isolate ARC6816 (IHMA 1699521), Guatemala, RTI, 2017): 8 µg/mL | MIC ([4]; isolate ARC6817 (IHMA 1699523), Guatemala, RTI, 2017): ≤0.12 µg/mL | MIC ([4]; isolate ARC6818 (IHMA 1683261), Thailand, RTI, 2017): ≤0.12 µg/mL | MIC ([4]; isolate ARC6819 (IHMA 1683267), Thailand, RTI, 2017): 8 µg/mL | MIC ([4]; isolate ARC6820 (IHMA 1647876), Argentina, RTI, 2017): 4 µg/mL | MIC ([4]; isolate ARC6821 (IHMA 1699517), Guatemala, RTI, 2017): ≤0.12 µg/mL | MIC ([4]; isolate ARC6822 (IHMA 1637626), Guatemala, RTI, 2017): 0.25 µg/mL | MIC ([4]; isolate ARC6823 (IHMA 1620872), Greece, SSSI, 2017): 8 µg/mL | MIC ([4]; isolate ARC6824 (IHMA 1625487), Argentina, BSI, 2017): 2 µg/mL | MIC ([4]; isolate ARC6937 (IHMA 1562926), Spain, UTI, 2017): >16 µg/mL | MIC ([4]; isolate ARC6950 (IHMA 1820064), Israel, RTI, 2018): 2 µg/mL | MIC ([4]; isolate ARC6953 (IHMA 1909827), Turkey, IAI, 2018): 0.5 µg/mL | MIC ([4]; isolate ARC6954 (IHMA 1838192), Guatemala, SSSI, 2018): 0.5 µg/mL | MIC ([4]; isolate ARC6955 (IHMA 1825425), United States, RTI, 2018): 2 µg/mL | MIC ([4]; isolate ARC7008 (IHMA 2009813), Thailand, BSI, 2019): 4 µg/mL | MIC ([4]; isolate ARC7009 (IHMA 2043611), United States, UTI, 2019): 2 µg/mL | MIC ([4]; isolate ARC7010 (IHMA 2043398), United States, RTI, 2019): 1 µg/mL | MIC ([4]; isolate ARC7011 (IHMA 2104553), Germany, RTI, 2019): 2 µg/mL | MIC ([4]; isolate ARC7012 (IHMA 2010001), Thailand, RTI, 2019): 2 µg/mL | MIC ([4]; isolate ARC7013 (IHMA 1962831), Argentina, RTI, 2019): 1 µg/mL | MIC ([4]; isolate ARC7014 (IHMA 2045328), Guatemala, IAI, 2019): 16 µg/mL | MIC ([4]; isolate ARC7015 (IHMA 2045327), Guatemala, UTI, 2019): 0.25 µg/mL | MIC ([4]; isolate ARC7016 (IHMA 2148441), Brazil, BSI, 2019): 0.5 µg/mL | MIC ([4]; isolate ARC7017 (IHMA 2148446), Brazil, BSI, 2019): 0.25 µg/mL | MIC ([4]; isolate ARC7018 (IHMA 2045454), Guatemala, IAI, 2019): 0.25 µg/mL | MIC ([4]; isolate ARC7019 (IHMA 2114463), Thailand, RTI, 2019): 1 µg/mL | MIC ([4]; isolate ARC7020 (IHMA 2045326), Guatemala, RTI, 2019): 0.5 µg/mL | MIC ([4]; isolate ARC7021 (IHMA 1966347), Guatemala, RTI, 2019): 0.25 µg/mL | MIC ([4]; isolate ARC7022 (IHMA 2045319), Guatemala, IAI, 2019): 1 µg/mL | MIC ([4]; isolate ARC7024 (IHMA 2059448), Turkey, RTI, 2019): 2 µg/mL | MIC ([4]; isolate ARC7025 (IHMA 2002121), Spain, RTI, 2019): 8 µg/mL | MIC ([4]; isolate ARC7026 (IHMA 2104494), Guatemala, BSI, 2019): 2 µg/mL | MIC ([4]; isolate ARC7082 (IHMA 2160640), Belgium, BSI, 2020): 16 µg/mL | MIC ([4]; isolate ARC7083 (IHMA 2163687), United States, RTI, 2020): 16 µg/mL | MIC ([4]; isolate ARC7084 (IHMA 2189596), Germany, RTI, 2020): 1 µg/mL | MIC ([4]; isolate ARC7085 (IHMA 2205747), Guatemala, IAI, 2020): 1 µg/mL | MIC ([4]; isolate ARC7086 (IHMA 2207563), Israel, RTI, 2020): 2 µg/mL | MIC ([4]; isolate ARC7088 (IHMA 2215554), Turkey, BSI, 2020): 16 µg/mL | MIC ([4]; isolate ARC7089 (IHMA 2240345), Argentina, BSI, 2020): 2 µg/mL | MIC ([4]; isolate ARC7090 (IHMA 2244410), Poland, RTI, 2020): 4 µg/mL | MIC ([4]; isolate ARC7091 (IHMA 2244564), Australia, RTI, 2020): ≤0.12 µg/mL | MIC ([4]; isolate ARC7092 (IHMA 2258772), United States, BSI, 2020): 4 µg/mL | MIC ([4]; isolate ARC7093 (IHMA 2258783), United States, RTI, 2020): 8 µg/mL | MIC ([4]; isolate ARC7094 (IHMA 2296423), Turkey, RTI, 2020): 2 µg/mL | MIC ([4]; isolate ARC7095 (IHMA 2320843), Turkey, BSI, 2020): 8 µg/mL | MIC ([4]; isolate ARC7156 (IHMA 2455450), Greece, RTI, 2021): >16 µg/mL | MIC ([4]; isolate ARC7158 (IHMA 2523738), Italy, BSI, 2021): 2 µg/mL | MIC ([4]; isolate ARC7159 (IHMA 2456229), Malaysia, RTI, 2021): 4 µg/mL | MIC ([4]; isolate ARC7160 (IHMA 2458626), Thailand, RTI, 2021): 1 µg/mL | MIC ([4]; isolate ARC7161 (IHMA 2429252), Ukraine, RTI, 2021): 16 µg/mL | MIC ([4]; isolate ARC7162 (IHMA 2411847), United States, BSI, 2021): 2 µg/mL | MIC ([4]; isolate ARC7163 (IHMA 2477704), United States, BSI, 2021): 2 µg/mL
